Data reported in patent publication US20260365690A1, “COMPOUND FOR RNA CAPPING AND USE THEREOF” (GUANGZHOU HENOVCOM BIOSCIENCE CO., LTD., priority 2022, published 2026).

Columns and labels:
mRNA [1] = experiment: Capping efficiency of mRNA by LC-MS; format: biochemical; conditions: cap analog 4 mM in in vitro transcription, RNase H cleaved 5′ fragment
Method: (§1) 1) The plasmids were linearized and the DNA templates were purified.
(§2) 2) The mRNA was synthesized by in vitro transcription, using 11 cap structures of the present disclosure, positive control CleanCap®AG (3′OMe) (Trilink, N-7413), negative control (uncapped mRNA) and blank control (DNase/RNase-Free water), respectively.
(§3) The reaction was carried out at 37 °C for 2 to 3 hours. TURBO DNase digestion was carried out for 15 minutes. The mRNA was precipitated by LiC for 30 min or more or overnight, and the mRNA precipitate was washed with 75% ethanol, dried briefly to evaporate the ethanol, and the mRNA was redissolved with RNase-Free water.
Gradient annealing was performed in a PCR instrument: […]
5) Magnetic beads were pre-treated and bound to probes.
100 μL of magnetic beads were taken and placed on a magnetic stand. The storage solution was discarded, and 100 μL of 1*BW solution was added thereto. After mixing well, the mixture was placed on the magnetic stand, and the supernatant was discarded. The wash was carried out three times in the same way. 100 μL of wash A buffer was added thereto. After mixing well, the mixture was placed on the magnetic stand, and the supernatant was discarded. The wash was carried out three times in the same way. 100 μL of wash B buffer was added thereto. After mixing well, the mixture was placed on the magnetic stand, and the supernatant was discarded. The wash was carried out three times in the same way. 120 μL of the sample was added to the magnetic bead solution and incubated for 30 min at room temperature with gentle mixing while incubating.
6) The mRNA was cut to obtain the 5′ single-stranded sequence of mRNA bound to probes.
20 μL of RNase H (5 U/μL) was added thereto, incubated at 37 °C for 3 hours, and mixed well every half hour. 100 μL of 1*BW solution was added thereto. After mixing well, the mixture was placed on the magnetic stand, and the supernatant was discarded. The wash was carried out three times in the same way. 100 μL of deionized water solution was added thereto. After mixing well, the mixture was placed on the magnetic stand, and the supernatant was discarded. The wash was carried out three times in the same way. 100 μL of 75% methanol was added thereto at 80 °C, then the mixture was heated to 80 °C on a heating plate and held for 3 min, placed on the magnetic stand, and the supernatant was aspirated. The sample was dried at room temperature for 45 min to 10 μL using an evaporative centrifuge and then resuspended in 50 μL of 100 μM EDTA/1% MeOH for LC-MS analysis.
LC-MS was used to analyze the capping efficiency of mRNA synthesized by analogues with different cap structures. The capping efficiency results of some compounds in the detection results are now provided.

mRNA [2] = experiment: mRNA synthesis by in vitro transcription (co-transcriptional capping), final product mass; format: biochemical; conditions: obtained from 20 μL mRNA synthesis reaction system; T7 RNA Polymerase; cap analog 4 mM; 37 °C, 2 to 3 hours
Method: as §1, §2, §3
3) The transcription product was purified, and the reaction yield was calculated to provide the test results of some compounds, as shown in Table 2.

HEK293T cells = experiment: Expression efficiency of capped luciferase mRNAs in HEK293T cells; format: cell-based; conditions: 6 h after transfection of capped luciferase mRNA into HEK293T cells; ratio to N-7413 (= 1)
Method: 2. Evaluation of Expression Efficiency of Different Capped Luciferase mRNAs in HEK293T Cells
1) HNE293T cells were cultured in DMEM medium containing 10% FBS and penicillin/streptomycin at 37 °C and 5% CO2.
2) The cultured HEK293T cells were spread in a 96-well plate with 1.25×10^4 cells per well.
3) After the cells completely adhered to the wall, 0.5 μg of a mixture of mRNA sample and Polyplus jetMESSENGER was added to each well of cells, and cultured at 37 °C and 5% CO2 for 6 hours.
4) The growth medium was removed from the cells to be tested and the cells were rinsed with PBS. After centrifugation to remove PBS, 50 μL of 1× lysis buffer was added thereto, and cells and all liquid were transferred to a microcentrifuge tube, and then centrifuged at 12000×g and 4 °C for 2 min.
5) The supernatant was transferred to a new tube. Fluorescence readings were detected using the ONE-Glo Luciferase Assay System Kit.
3. All compounds, N-7413, negative control and blank control were tested under the same conditions, and some experimental results in the test results are shown in Table 5.
The relative fluorescence reading results (6 h) after transfection of capped mRNA into 293T cells are now provided, as shown in Table 5. It can be seen from the FIGURE that the mRNA capped by the compound of the present disclosure has a high expression level, and some cap structures can enable higher expression efficiency of mRNA compared to N-7413.

| Structure (SMILES) | Capping efficiency (mRNA [1]) | Final product mass (mRNA [2]) | Relative fluorescence reading (HEK293T cells) |
| --- | --- | --- | --- |
| CO[C@@H]1[C@H](OP(=O)(O)OC[C@H]2O[C@@H](n3cnc4c(=O)[nH]c(N)nc43)[C@H](O)[C@@H]2O)[C@@H](COP(=O)(O)OP(=O)(O)OP(=O)(O)OC[C@H]2O[C@@H](n3c[n+](C)c4c(=O)[nH]c(N)nc43)[C@H](O)[C@@H]2CCF)O[C@H]1n1cnc2c(N)ncnc21 [Compound 19] | A (100% > A ≥ 95%) | 137 µg | 1.52 |
| CCCCCCNC(=O)[C@H]1[C@@H](O)[C@H](n2c[n+](C)c3c(=O)[nH]c(N)nc32)O[C@@H]1COP(=O)(O)OP(=O)(O)OP(=O)(O)OC[C@H]1O[C@@H](n2cnc3c(N)ncnc32)[C@H](OC)[C@@H]1OP(=O)(O)OC[C@H]1O[C@@H](n2cnc3c(=O)[nH]c(N)nc32)[C@H](O)[C@@H]1O [Compound 205] |  | 98 µg | 1.52 |
| CO[C@@H]1[C@H](CC(=O)NC[C@H]2O[C@@H](n3cnc4c(=O)[nH]c(N)nc43)[C@H](O)[C@@H]2O)[C@@H](COP(=O)(O)OP(=O)(O)OP(=O)(O)OC[C@H]2O[C@@H](n3c[n+](C)c4c(=O)[nH]c(N)nc43)[C@H](O)[C@@H]2C)O[C@H]1n1cnc2c(N)ncnc21 [Compound 59] |  | 91 µg | 0.71 |
| CO[C@@H]1[C@H](OCOC[C@H]2O[C@@H](n3cnc4c(=O)[nH]c(N)nc43)[C@H](O)[C@@H]2O)[C@@H](COP(=O)(O)OP(=O)(O)OP(=O)(O)OC[C@H]2O[C@@H](n3c[n+](C)c4c(=O)[nH]c(N)nc43)[C@H](O)[C@@H]2C)O[C@H]1n1cnc2c(N)ncnc21 [Compound 57] | C (90% > C ≥ 80%) | 90 µg | 0.88 |
| C/C=C/C[C@H]1[C@@H](O)[C@H](n2c[n+](C)c3c(=O)[nH]c(N)nc32)O[C@@H]1COP(=O)(O)OP(=O)(O)OP(=O)(O)OC[C@H]1O[C@@H](n2cnc3c(N)ncnc32)[C@H](OC)[C@@H]1OP(=O)([O-])OC[C@H]1O[C@@H](n2cnc3c(=O)[nH]c(N)nc32)[C@H](O)[C@@H]1O [Compound 711] |  | 106 µg | 1.86 |
| CO[C@@H]1[C@H](OP(=O)(O)OC[C@H]2O[C@@H](n3cnc4c(=O)[nH]c(N)nc43)[C@H](O)[C@@H]2O)[C@@H](COP(=O)(O)OP(=O)(O)OP(=O)(O)OC[C@H]2O[C@@H](n3c[n+](C)c4c(=O)[nH]c(N)nc43)[C@H](O)[C@@H]2N=[N+]=[N-])O[C@H]1n1cnc2c(N)ncnc21 [Compound 399] |  | 117 µg | 1.51 |
| CO[C@@H]1[C@H](OP(=O)(O)OC[C@H]2O[C@@H](n3cnc4c(=O)[nH]c(N)nc43)[C@H](O)[C@@H]2O)[C@@H](COP(=O)(O)OP(=O)(O)OP(=O)(O)OC[C@H]2O[C@@H](n3c[n+](C)c4c(=O)[nH]c(N)nc43)[C@H](O)[C@@H]2C)O[C@H]1n1cnc2c(N)ncnc21 [Compound 1] | A (100% > A ≥ 95%) | 96 µg | 1.74 |
| CO[C@@H]1[C@H](OP(=O)(O)OC[C@H]2O[C@@H](n3cnc4c(=O)[nH]c(N)nc43)[C@H](O)[C@@H]2O)[C@@H](COP(=O)(O)OP(=O)(O)OP(=O)(O)OC[C@H]2O[C@@H](n3c[n+](C)c4c(=O)[nH]c(N)nc43)[C@H](O)[C@@H]2NC(=O)C(C)C)O[C@H]1n1cnc2c(N)ncnc21 [Compound 293] |  | 103 µg | 1.68 |
| CCC[C@H]1[C@@H](O)[C@H](n2c[n+](C)c3c(=O)[nH]c(N)nc32)O[C@@H]1COP(=O)(O)OP(=O)(O)OP(=O)(O)OC[C@H]1O[C@@H](n2cnc3c(NC)ncnc32)[C@H](OC)[C@@H]1OP(=O)(O)OC[C@H]1O[C@@H](n2cnc3c(=O)[nH]c(N)nc32)[C@H](O)[C@@H]1O [Compound 719] |  | 97 µg | 1.69 |
| CC[C@H]1[C@@H](O)[C@H](n2c[n+](C)c3c(=O)[nH]c(N)nc32)O[C@@H]1COP(=O)(O)OP(O)(=S)OP(=O)(O)OC[C@H]1O[C@@H](n2cnc3c(N)ncnc32)[C@H](OC)[C@@H]1OP(=O)([O-])OC[C@H]1O[C@@H](n2cnc3c(=O)[nH]c(N)nc32)[C@H](O)[C@@H]1O (stereo partly shown) [Compound 718] |  | 106 µg | 1.66 |
| C=CC[n+]1cn([C@@H]2O[C@H](COP(=O)(O)OP(=O)(O)OP(=O)(O)OC[C@H]3O[C@@H](n4cnc5c(N)ncnc54)[C@H](OC)[C@@H]3OP(=O)(O)OC[C@H]3O[C@@H](n4cnc5c(=O)[nH]c(N)nc54)[C@H](O)[C@@H]3O)[C@@H](CC)[C@H]2O)c2nc(N)[nH]c(=O)c21 [Compound 716] |  | 103 µg | 1.50 |
| CCC(=O)N[C@H]1[C@@H](O)[C@H](n2c[n+](C)c3c(=O)[nH]c(N)nc32)O[C@@H]1COP(=O)(O)OP(=O)(O)OP(=O)(O)OC[C@H]1O[C@@H](n2cnc3c(N)ncnc32)[C@H](OC)[C@@H]1OP(=O)(O)OC[C@H]1O[C@@H](n2cnc3c(=O)[nH]c(N)nc32)[C@H](O)[C@@H]1O [Compound 291] |  | 106 µg | 1.60 |
| CO[C@@H]1[C@H](OP(=O)(O)OC[C@H]2O[C@@H](n3cnc4c(=O)[nH]c(N)nc43)[C@H](O)[C@@H]2O)[C@@H](COP(=O)(O)OP(=O)(O)OP(=O)(O)OC[C@H]2O[C@@H](n3c[n+](C)c4c(=O)[nH]c(N)nc43)[C@H](O)[C@@H]2NC(=O)c2ccccc2)O[C@H]1n1cnc2c(N)ncnc21 [Compound 297] |  | 110 µg | 1.79 |
| CNC(=O)[C@H]1[C@@H](O)[C@H](n2c[n+](C)c3c(=O)[nH]c(N)nc32)O[C@@H]1COP(=O)(O)OP(=O)(O)OP(=O)(O)OC[C@H]1O[C@@H](n2cnc3c(N)ncnc32)[C@H](OC)[C@@H]1OP(=O)(O)OC[C@H]1O[C@@H](n2cnc3c(=O)[nH]c(N)nc32)[C@H](O)[C@@H]1O [Compound 191] |  | 100 µg | 1.68 |
| CO[C@@H]1[C@H](OP(=O)(O)OC[C@H]2O[C@@H](n3cnc4c(=O)[nH]c(N)nc43)[C@H](O)[C@@H]2O)[C@@H](COP(=O)(O)OP(=O)(O)OP(=O)(O)OC[C@H]2O[C@@H](n3c[n+](C)c4c(=O)[nH]c(N)nc43)[C@H](O)[C@@H]2NC(=O)C(C)(C)C)O[C@H]1n1cnc2c(N)ncnc21 [Compound 722] |  | 103 µg | 1.74 |
| CO[C@@H]1[C@H](OP(=O)(O)OC[C@H]2O[C@@H](n3cnc4c(=O)[nH]c(N)nc43)[C@H](O)[C@@H]2O)[C@@H](COP(=O)(O)OP(=O)(O)CP(=O)(O)OC[C@H]2O[C@@H](n3c[n+](C)c4c(=O)[nH]c(N)nc43)[C@H](O)[C@@H]2CCF)O[C@H]1n1cnc2c(N)ncnc21 [Compound 103] |  | 94 µg | 1.45 |
| CO[C@@H]1[C@H](OP(=O)([O-])OC[C@H]2O[C@@H](n3cnc4c(=O)[nH]c(N)nc43)[C@H](O)[C@@H]2O)[C@@H](COP(=O)(O)OP(=O)(O)OP(=O)(O)OC[C@H]2O[C@@H](n3c[n+](C)c4c(=O)[nH]c(N)nc43)[C@H](O)[C@@H]2OC)O[C@H]1n1cnc2c(N)ncnc21 [Compound N-7413, reference compound] |  | 114 µg | 1.00 |
